Source: patent US20250313563A1, “GLYCOGEN SYNTHASE KINASE 3 INHIBITORS AND USES THEREOF” (The Broad Institute, Inc., priority 2022, published 2025)
Where two headings read alike, the source gives them in different places.

How the values were obtained:
[1] = target: GSK3α (GST-full length GSK3α) (Homo sapiens (Human), UniProt P49840); test: GSK3α TR-FRET kinase assay; assay type: biochemical; settings: read-out: GSK3-A (TR-FRET 1 mM ATP); GMean; IC50; 1 mM ATP; geometric mean
Method: (§1) TR-FRET Assay: The assay was performed in a white, 384 well, low volume, flat bottom plate (Grenier). After a 30 minute preincubation in assay buffer with the indicated concentration of compound, the kinase activity was initiated by the addition of the substrates. 1 nM GSK3α (GST-full length GSK3α [SignalChem G08-10G]) or 1 nM GSK3b (GST-full length GSK3b: [SignalChem G08-9G]) were then incubated at ambient temperature for 100 minutes in 10 μL of 50 mM Tris, pH 7.5, 20 mM MgCl2, 0.05 mM DTT, 100 μg/mL BSA and 1% DMSO, with 200 nM biotinylated peptide substrate (biotinylated and S645 phosphorylated glycogen synthase 631-650) and either 4 μM ATP (GSK3α, Table 16) or 2 μM ATP (GSK3b, Table 16) or 1 mM ATP (Table 17). The kinase activity was quenched with 2 μL of 250 mM EDTA. A 10 μL volume of 40 nM Strepavidin-d2, 2 nM Tb^2+-pSer641 antibody in TR-FRET Detection Buffer (Invitrogen) was then added. After 60 min at room temperature the plate was read on Envision plate reader using Ex: 340 nm, Em: 615 nm and […]. The normalized 665/615 Signal ratio versus log compound concentration was analyzed by XLFIT to yield IC50 values.

[2] = target: GSK3b (GST-full length GSK3b) (Homo sapiens (Human), UniProt P49841); test: GSK3b TR-FRET kinase assay; assay type: biochemical
Chain of GSK3b (GST-full length GSK3b) (P49841 whole entry): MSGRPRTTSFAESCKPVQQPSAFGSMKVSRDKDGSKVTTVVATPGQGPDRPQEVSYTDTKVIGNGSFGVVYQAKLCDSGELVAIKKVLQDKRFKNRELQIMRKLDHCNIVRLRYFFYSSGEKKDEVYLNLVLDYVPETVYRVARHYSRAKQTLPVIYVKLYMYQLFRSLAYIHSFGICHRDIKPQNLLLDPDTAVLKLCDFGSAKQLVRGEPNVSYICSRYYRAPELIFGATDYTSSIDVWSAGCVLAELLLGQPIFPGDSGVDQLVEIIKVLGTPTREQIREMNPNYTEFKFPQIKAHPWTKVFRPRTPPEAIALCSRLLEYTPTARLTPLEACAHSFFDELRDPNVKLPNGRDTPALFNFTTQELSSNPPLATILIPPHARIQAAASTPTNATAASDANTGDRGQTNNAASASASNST
Method: as §1

[3] = read-out: GSK3-B (TR-FRET 1 mM ATP), GMean, IC50, 1 mM ATP, geometric mean
[4] = 1 nM GSK3b, 2 μM ATP, 30 minute preincubation, geometric mean, read-out: GSK3-B TR-FRET BIOCHEMICAL (TR-FRET), GMean, IC50
[5] = 1 nM GSK3b, 2 μM ATP, 30 minute preincubation, read-out: GSK3-B TR-FRET BIOCHEMICAL (TR-FRET), IC50
[6] = 1 nM GSK3b, 2 μM ATP, 30 minute preincubation, Table 16, read-out: GSK3-B TR-FRET BIOCHEMICAL (TR-FRET)

Chain of GSK3α (GST-full length GSK3α) (P49840 whole entry): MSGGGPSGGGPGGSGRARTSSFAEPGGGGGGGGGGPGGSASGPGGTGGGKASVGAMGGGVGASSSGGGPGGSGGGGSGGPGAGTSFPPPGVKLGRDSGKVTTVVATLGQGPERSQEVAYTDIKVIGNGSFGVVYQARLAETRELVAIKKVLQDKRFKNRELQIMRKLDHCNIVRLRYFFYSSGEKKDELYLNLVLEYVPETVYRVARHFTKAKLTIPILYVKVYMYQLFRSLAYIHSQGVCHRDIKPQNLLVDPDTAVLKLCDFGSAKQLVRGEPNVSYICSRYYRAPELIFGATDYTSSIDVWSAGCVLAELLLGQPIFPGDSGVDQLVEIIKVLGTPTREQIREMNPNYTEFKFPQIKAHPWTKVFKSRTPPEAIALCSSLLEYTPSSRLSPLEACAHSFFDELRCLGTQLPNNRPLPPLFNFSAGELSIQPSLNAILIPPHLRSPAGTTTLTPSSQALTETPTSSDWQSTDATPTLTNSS

CC(C)(C)Cc1[nH]nc2c1C1(COc3ccccc31)C1=C(CC(C)(C)CC1=O)N2 (centres unmarked) [Compound 117093]
IC50 [1]: 1000 to 5000 nM
IC50 [2, 3]: 100 to 1000 nM

CN1CC2(C3=C(CC(C)(C)CC3=O)Nc3n[nH]c(C4CC(F)(F)C4)c32)c2ccccc21 (centres unmarked) [Compound 119047]
IC50 [1]: 1000 to 5000 nM
IC50 [2, 3]: 100 to 1000 nM

CC(C)(C)Cc1[nH]nc2c1C(C)(c1cc(S(C)(=O)=O)ccc1F)C1=C(CC(C)(C)CC1=O)N2 (centres unmarked) [Compound 125977]
IC50 [2, 3]: > 5000 nM

CN1CC2(C3=C(CC(C)(C)CC3=O)Nc3n[nH]c(CC(C)(C)C)c32)c2ccccc21 (centres unmarked) [Compound 125979]
IC50 [1]: > 5000 nM
IC50 [2, 3]: 1000 to 5000 nM

CN(C)S(=O)(=O)c1cccc(C2(C)C3=C(CC(C)(C)CC3=O)Nc3n[nH]c(CC(C)(C)C)c32)c1 (centres unmarked) [Compound 126013]
IC50 [2, 3]: > 5000 nM

C[S+]([O-])c1cccc(C2(C)C3=C(CC(C)(C)CC3=O)Nc3n[nH]c(CC(C)(C)C)c32)c1 (centres unmarked) [Compound 126193]
IC50 [2, 3]: > 5000 nM

Cn1cc(-c2cccc(C3(C)C4=C(CC(C)(C)CC4=O)Nc4n[nH]c(CC(C)(C)C)c43)c2)cn1 (centres unmarked) [Compound 126394]
IC50 [1]: > 5000 nM

Cc1ccc(S(C)(=O)=O)cc1C1(C)C2=C(CC(C)(C)CC2=O)Nc2n[nH]c(CC(C)(C)C)c21 (centres unmarked) [Compound 126398]
IC50 [2, 3]: > 5000 nM

CC(C)(C)Cc1[nH]nc2c1C(C)(c1cccc(N3CCOCC3)c1)C1=C(CC(C)(C)CC1=O)N2 (centres unmarked) [Compound 126399]
IC50 [2, 3]: > 5000 nM

CCC1(c2cccc(C3CCOCC3)c2)C2=C(CC(C)(C)CC2=O)Nc2n[nH]cc21 (centres unmarked) [Compound 791273]
IC50 [2, 4]: 100 to 1000 nM

CCC1(c2cccc(-c3ccncn3)c2)C2=C(CC(C)(C)CC2=O)Nc2n[nH]cc21 (centres unmarked) [Compound 810488]
IC50 [2, 4]: 100 to 1000 nM

CCC1(c2cccc(C(F)(F)F)c2)C2=C(CC(C)NC2=O)Nc2n[nH]cc21 (centres unmarked) [Compound 912096]
IC50 [2, 5]: 100 to 1000 nM

CCC1(c2cccc(C(F)(F)F)c2)C2=C(Nc3n[nH]cc31)C(C)N(C)C2=O (centres unmarked) [Compound 913454]
IC50 [2, 6]: 100 to 1000 nM

CC[C@@]1(c2cccc(C(F)(F)F)c2)C2=C(Nc3n[nH]cc31)[C@H](C)N(C)C2=O [Compound 913473]
IC50 [2, 6]: 100 to 1000 nM

CCC1(c2cccc(-c3cnn(C)c3)c2)C2=C(CC(C)(C)NC2=O)Nc2n[nH]c(C)c21 (centres unmarked) [Compound 944027]
IC50 [2, 5]: 100 to 1000 nM

CCC1(c2cccc(-c3ncnn3C)c2)C2=C(CC(C)(C)CC2=O)Nc2n[nH]cc21 (centres unmarked) [Compound 945472]
IC50 [2, 6]: 100 to 1000 nM

CCC1(c2cccc(N(C)c3cc(C)ccn3)c2)C2=C(CC(C)(C)CC2=O)Nc2n[nH]cc21 (centres unmarked) [Compound 945609]
IC50 [2, 6]: 100 to 1000 nM

CCC1(c2cccc(-c3c(C)nnn3C)c2)C2=C(CC(C)(C)CC2=O)Nc2n[nH]cc21 (centres unmarked) [Compound 946099]
IC50 [2, 3]: 100 to 1000 nM

CCC1(c2cccc(N3CCCCC3)c2)C2=C(CC(C)(C)NC2=O)Nc2n[nH]c(C(F)(F)F)c21 (centres unmarked) [Compound 947861]
IC50 [2, 3]: 100 to 1000 nM

CCC1(c2cccc(C(F)(F)F)c2)C2=C(CCN(c3cccc(C)c3)C2=O)Nc2n[nH]cc21 (centres unmarked) [Compound 948052]
IC50 [2, 4]: 100 to 1000 nM
